Source: patent US5693830A, “Process for preparing the spiropyrone compounds” (Tokuyama Corporation, priority 1994, dated 1997)

Assay: Photochromic properties of spiropyran compounds in methyl polymethacrylate film
Format: physicochemical
Settings: for ε (60 sec.) -ε (0 sec.): absorbancy at max. absorption wavelength, irradiated 60 seconds minus not irradiated; for ε (60 sec.) -ε (0 sec.) / Developed color tone: 25° C.; for λ MAX (max. absorption wavelength): color-developing film, spectrophotometer 220A; for Developed color tone: film 1.0×10^-4 mol/g, 0.1 mm thick, mercury lamp, 10 cm, 60 seconds; for t1/2 (half-value period): time until absorbancy decreases to one-half {ε(60 sec)-ε(0 sec)} after irradiation for 60 seconds
Protocol: The concentration of the above compound contained in the film was adjusted to be 1.0×10^-4 mol/g and the thickness was adjusted to be 0.1 mm. The photochromic film was exposed to the light of a mercury lamp SHL-100 produced by Toshiba Co. at a temperature of 25° C.+1° C. from a distance of 10 cm for 60 seconds so as to develop a color, in order to measure its photochromic properties. The photochromic properties were expressed as described below.
Max. absorption wavelength (λmax)
λmax of the color-developing film was found by using a spectrophotometer 220A manufactured by Hitachi, Ltd.
Absorbancy of the film at a maximum absorption wavelength after irradiated with light for 60 seconds under the above-mentioned conditions.
Absorbancy of the film that is not irradiated with light at a maximum absorption wave of when it is irradiated with light.
Time needed until the absorbancy of the film decreases to one-half {ε(60 sec)-ε(0 sec)} after irradiated with light for 60 seconds.

Compound | ε (60 sec.) -ε (0 sec.) | λ MAX (max. absorption wavelength) [nm] | Developed color tone | t1/2 (half-value period) [s]
3',4'-Dimethylspiro(2-bicyclo[3,3,1]nonene-9,2'-(2H)fluoro(2,3-b)pyran) [compound 38] | 0.6 | 430 | yellow | 10
CCCC12CC=CC(CCC1)C21C=C(CC)c2ccc3c(-c4ccccc4)cccc3c2O1 (stereo not shown) [compound 31, 7'-Phenyl-4'-ethyl-5-n-propylspiro(2-bicyclo[3,3,1]nonene-9,2'-(2H)benzo(h)chromene)] | 0.7 | 460 | yellow | 90
CCCCC1=CC2(Oc3c1ccc1ccccc31)C1C=CCC2CCC1 (stereo not shown) [compound 32, 4'-n-Butylspiro(2-bicyclo[3,3,1]nonene-9,2'-(2H)benzo(h)chromene)] | 0.8 | 445 | yellow | 110
CCCC1=Cc2c(ccc3ccccc23)OC12C1C=CCC2CCC1 (stereo not shown) [compound 33, 3'-n-Propylspiro(2-bicyclo[3,3,1]nonene-9,2'-(2H)benzo(f)chromene)] | 0.6 | 410 | yellow | 18
C1=CC2CCCC(C1)C21Oc2ccc3ccccc3c2C=C1CCc1ccccc1 (stereo not shown) [compound 34, 3'-Benzylmethylspiro(2-bicyclo[3,3,1]nonene-9,2'-(2H)benzo(f)chromene)] | 0.7 | 406 | yellow | 26
CCC1=C(Cc2ccccc2)C2(Oc3scc(Br)c31)C1C=CCC2CCC1 (stereo not shown) [compound 39, 4'-Ethyl-3'-benzyl-5'-bromospiro(2-bicyclo[3,3,1]nonene-9,2'-(2H)thieno(2,3-b)pyran)] | 0.6 | 465 | orange | 12
Spiro(2-bicyclo(3,3,1)nonene-9,2'-(2H)methylpyrrolo(2,3-b)pyran) [compound 27] | 1.0 | 470 | orange | 48

Other lines, results leading:

ε (60 sec.) -ε (0 sec.) | λ MAX (max. absorption wavelength) [nm] | Developed color tone | t1/2 (half-value period) [s] | Compound
0.9 | 402 | yellow | 16 | ClC12CC=CC(CCC1)C21C=C(Cc2ccccc2)c2c(cnc3ccccc23)O1 (stereo not shown) [compound 28, 5-Chloro-4'-benzylspiro(2-bicyclo(3,3,1)nonene-9,2'-(2H)quino(3,4-b)pyran)]
0.5 | 494 | orange | 11 | CCCCC1=CC2(Oc3c(C#N)cccc31)C1C=CCC2CCC1 (stereo not shown) [compound 29, 8'-Cyano-4'-n-butylspiro(2-bicyclo(3,3,1)nonene-9,2'-(2H)chromene)]
0.6 | 480 | orange | 26 | CC1(C)CCC2(C)CC=CC1C21C=C(c2ccccc2)c2cccnc2O1 (stereo not shown) [compound 30]
0.6 | 410 | yellow | 18 | CC(C)C1=Cc2c(ccc3ccccc23)OC12C1C=CCC2CCC1 (stereo not shown) [compound 35, 3'-i-Propylspiro(2-bicyclo[3,3,1]nonene-9,2'-(2H)benzo(f)chromene)]
0.9 | 420 | yellow | 25 | COc1ccc(C2=Cc3c(ccc4ccccc34)OC23C2C=CCC3CCC2)cc1 (stereo not shown) [compound 36, 3'-p-methoxyphenylspiro(2-bicyclo[3,3,1]nonene-9,2'-(2H)benzo(f)chromene)]
0.5 | 415 | yellow | 22 | CCC1=Cc2c(cnc3ccccc23)OC12C1C=CCC2CCC1 (stereo not shown) [compound 37, 3'-Ethylspiro(2-bicyclo[3,3,1]nonene-9,2'-(2H)quino(3,4-b)pyran)]
0.8 | 420 | yellow | 14 | CCCC1=C(Cc2ccccc2)c2c(ccc3ccccc23)OC12C1C=CCC2CCC1 (stereo not shown) [compound 40, 3'-n-Propyl-4'-benzylspiro(2-bicyclo[3,3,1]nonene-9,2'-(2H)benzo(f)chromene)]
0.7 | 440 | yellow | 17 | C1=CC2CCCC(C1)C21Oc2ccc3ccccc3c2C(c2ccccc2)=C1CCc1ccccc1 (stereo not shown) [compound 41, 3'-Benzylmethyl-4'-phenylspiro(2-bicyclo[3,3,1]nonene-9,2'-(2H)benzo(f)chromene)]
1.0 | 450 | yellow | 28 | CCC1=C(CC)C2(Oc3c1ccc1ccccc31)C1C=CCC2CCC1 (stereo not shown) [compound 42, 3',4'-Diethylspiro(2-bicyclo[3,3,1]nonene-9,2'-(2H)benzo(h)chromene)]
